# Laboratory results from ChEMBL document CHEMBL2016464, “Identification of Inhibitors of NOD1-Induced Nuclear Factor-κB Activation” (ACS Med Chem Lett, 2011).
# Calls of active or inactive are those of the source. No cut-off for these calls is given here.
# Key:
# HEK-293T [1] = assay: Cytotoxicity against HEK293T cells at 20 uM by alamar blue assay; assay type: cell-based; conditions: human
# [2] = target: Nucleotide-binding oligomerization domain-containing protein 2 (Homo sapiens, UniProt Q9HC29); assay: Inhibition of NOD-2 in human MCF7 cells assessed as inhibition of MDP-induced IL8 secretion at 0.25 to 5 uM by ELISA; assay type: cell-based
# MCF7 = assay: Inhibition of TNFalpha-induced IL8 secretion in human MCF7 cells at 0.25 to 5 uM by ELISA; assay type: functional, cell-based
# HEK-293T [3] = assay: Inhibition of PMA/ionomycin-induced NFkappaB activation at 0.25 to 25 uM in HEK293T cells by luciferase reporter gene assay; assay type: cell-based; conditions: Homo sapiens
# HEK-293T [4] = assay: Inhibition of doxorubicin-induced NFkappaB activation at 0.25 to 25 uM in HEK293T cells by luciferase reporter gene assay; assay type: cell-based; conditions: Homo sapiens
# [5] = Cytotoxicity against human Fa2N-4 cells after 24 hrs by ATP-lite assay; assay type: cell-based; conditions: read-out: LD50
# [6] = Plasma protein binding in human at 1 uM after 4 hrs; assay type: ADME, cell-free; conditions: read-out: PPB (converted)
# [7] = Plasma protein binding in human at 10 uM after 4 hrs; assay type: ADME, cell-free; conditions: read-out: PPB (converted)
# [8] = Plasma protein binding in mouse at 1 uM after 4 hrs; assay type: ADME, cell-free; conditions: read-out: PPB (converted)
# [9] = Plasma protein binding in mouse at 10 uM after 4 hrs; assay type: ADME, cell-free; conditions: read-out: PPB (converted)
# [10] = Metabolic stability in human plasma assessed as compound remaining at 1 uM after 180 mins; assay type: ADME, cell-free; conditions: read-out: Stability
# [11] = Metabolic stability in mouse plasma assessed as compound remaining at 1 uM after 180 mins; assay type: ADME, cell-free; conditions: read-out: Stability
# [12] = Metabolic stability in human liver microsomes assessed as compound remaining at 1 uM preincubated for 10 mins measured after 60 mins; assay type: ADME, Microsome; conditions: read-out: Stability
# [13] = Metabolic stability in mouse liver microsomes assessed as compound remaining at 1 uM preincubated for 10 mins measured after 60 mins; assay type: ADME, Microsome; conditions: read-out: Stability
# [14] = Plasma concentration in mouse at 15 mg/kg, ip at 20 mins
# [15] = Plasma concentration in mouse at 30 mg/kg, ip at 20 mins
# [16] = Plasma concentration in mouse at 15 mg/kg, ip at 120 mins
# [17] = Plasma concentration in mouse at 30 mg/kg, ip at 120 mins
# [18] = target: Histamine H1 receptor (Homo sapiens) (UniProt P35367); assay: Inhibition of H1 histamine receptor at 10 uM
# [19] = target: 5-hydroxytryptamine receptor 6 (Homo sapiens) (UniProt P50406); assay: Inhibition of 5HT6 receptor at 10 uM
# [20] = target: 5-hydroxytryptamine receptor 2B (Homo sapiens) (UniProt P41595); assay: Inhibition of 5HT2B receptor at 10 uM
# [21] = target: Aurora kinase B (Homo sapiens) (UniProt Q96GD4); assay: Inhibition of AURKB at 10 uM relative to control
# [22] = target: T1, Aurora kinase C (Homo sapiens) (UniProt Q9UQB9); assay: Inhibition of AURKC at 10 uM relative to control
# T1 sequence (whole entry): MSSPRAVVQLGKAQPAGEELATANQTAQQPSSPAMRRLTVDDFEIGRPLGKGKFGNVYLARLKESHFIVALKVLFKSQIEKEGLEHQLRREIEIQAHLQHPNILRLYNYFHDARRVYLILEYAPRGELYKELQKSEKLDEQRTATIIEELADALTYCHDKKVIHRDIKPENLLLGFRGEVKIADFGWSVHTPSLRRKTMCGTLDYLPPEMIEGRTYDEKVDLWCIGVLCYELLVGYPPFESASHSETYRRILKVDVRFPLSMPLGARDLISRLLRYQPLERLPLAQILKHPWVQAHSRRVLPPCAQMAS
# [23] = target: Receptor-type tyrosine-protein kinase FLT3 (Homo sapiens) (UniProt P36888); assay: Inhibition of CFLT3 at 10 uM relative to control
# [24] = target: Serine/threonine-protein kinase RIO2 (Homo sapiens) (UniProt Q9BVS4); assay: Inhibition of RIOK2 at 10 uM relative to control
# [25] = target: T2, Aurora kinase A (Homo sapiens) (UniProt O14965); assay: Inhibition of AURKA at 10 uM relative to control
# T2 sequence (whole entry): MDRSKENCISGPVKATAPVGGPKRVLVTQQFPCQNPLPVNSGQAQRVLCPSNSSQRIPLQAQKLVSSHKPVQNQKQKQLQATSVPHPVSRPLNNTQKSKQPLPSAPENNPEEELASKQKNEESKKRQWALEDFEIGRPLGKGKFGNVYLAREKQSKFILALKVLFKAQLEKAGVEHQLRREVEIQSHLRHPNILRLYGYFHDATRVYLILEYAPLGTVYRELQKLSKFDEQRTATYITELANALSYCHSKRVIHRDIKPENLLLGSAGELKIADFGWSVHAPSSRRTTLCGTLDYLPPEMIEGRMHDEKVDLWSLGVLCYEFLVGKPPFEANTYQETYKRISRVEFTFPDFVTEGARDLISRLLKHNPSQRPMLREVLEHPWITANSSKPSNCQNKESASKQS
# [26] = Cytotoxicity against human NCI60 cells; assay type: cell-based
# [27] = target: T3, Nucleotide-binding oligomerization domain-containing protein 1 (Homo sapiens) (UniProt Q9Y239); conditions: MCF7, 0.25 to 5 uM
# T3 sequence (whole entry): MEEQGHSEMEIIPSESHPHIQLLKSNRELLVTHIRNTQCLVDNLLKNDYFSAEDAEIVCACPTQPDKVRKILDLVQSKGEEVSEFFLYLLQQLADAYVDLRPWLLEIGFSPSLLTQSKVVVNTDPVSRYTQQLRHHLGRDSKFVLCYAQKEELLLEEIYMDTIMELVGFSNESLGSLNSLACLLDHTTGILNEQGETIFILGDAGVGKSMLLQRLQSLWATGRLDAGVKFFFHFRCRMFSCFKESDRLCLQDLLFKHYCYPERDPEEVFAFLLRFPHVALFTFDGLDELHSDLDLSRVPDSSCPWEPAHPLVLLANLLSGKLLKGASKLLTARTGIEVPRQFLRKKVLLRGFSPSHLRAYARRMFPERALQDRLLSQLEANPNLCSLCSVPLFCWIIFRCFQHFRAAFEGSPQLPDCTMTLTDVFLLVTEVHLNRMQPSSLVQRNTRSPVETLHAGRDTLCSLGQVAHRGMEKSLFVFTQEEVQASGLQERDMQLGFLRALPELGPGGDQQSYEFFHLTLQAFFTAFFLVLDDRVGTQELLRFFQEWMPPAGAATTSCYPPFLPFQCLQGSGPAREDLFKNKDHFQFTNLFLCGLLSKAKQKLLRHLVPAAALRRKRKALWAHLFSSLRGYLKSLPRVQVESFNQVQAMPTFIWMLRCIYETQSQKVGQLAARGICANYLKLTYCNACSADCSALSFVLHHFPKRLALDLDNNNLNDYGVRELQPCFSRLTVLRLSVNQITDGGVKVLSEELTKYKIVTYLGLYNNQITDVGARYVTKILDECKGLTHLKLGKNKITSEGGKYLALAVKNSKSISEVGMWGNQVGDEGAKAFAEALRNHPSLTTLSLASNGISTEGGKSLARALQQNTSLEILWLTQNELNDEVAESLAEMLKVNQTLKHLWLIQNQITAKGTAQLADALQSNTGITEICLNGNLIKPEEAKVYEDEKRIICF
# cells = conditions: Homo sapiens, HEK-293T, 14 h
# Description: Inhibition of TNFalpha-induced NFkappaB activation in HEK293T cells after 14 hrs by luciferase reporter gene assay
# Sequence of Histamine H1 receptor (Homo sapiens) (P35367 whole entry): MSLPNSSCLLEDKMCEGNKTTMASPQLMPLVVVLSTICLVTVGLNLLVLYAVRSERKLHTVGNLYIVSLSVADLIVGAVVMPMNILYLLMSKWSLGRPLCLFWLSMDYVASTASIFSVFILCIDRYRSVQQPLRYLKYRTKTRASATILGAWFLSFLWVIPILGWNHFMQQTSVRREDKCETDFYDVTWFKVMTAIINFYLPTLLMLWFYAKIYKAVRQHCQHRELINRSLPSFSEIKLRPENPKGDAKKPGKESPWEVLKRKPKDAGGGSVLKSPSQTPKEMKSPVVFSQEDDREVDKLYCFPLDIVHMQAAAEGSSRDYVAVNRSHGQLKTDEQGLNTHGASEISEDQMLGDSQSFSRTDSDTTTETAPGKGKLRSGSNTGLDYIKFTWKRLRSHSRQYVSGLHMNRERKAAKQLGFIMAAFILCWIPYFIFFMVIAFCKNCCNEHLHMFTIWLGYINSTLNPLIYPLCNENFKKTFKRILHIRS
# Sequence of Nucleotide-binding oligomerization domain-containing protein 2 (Q9HC29 whole entry, the tested form may be a part): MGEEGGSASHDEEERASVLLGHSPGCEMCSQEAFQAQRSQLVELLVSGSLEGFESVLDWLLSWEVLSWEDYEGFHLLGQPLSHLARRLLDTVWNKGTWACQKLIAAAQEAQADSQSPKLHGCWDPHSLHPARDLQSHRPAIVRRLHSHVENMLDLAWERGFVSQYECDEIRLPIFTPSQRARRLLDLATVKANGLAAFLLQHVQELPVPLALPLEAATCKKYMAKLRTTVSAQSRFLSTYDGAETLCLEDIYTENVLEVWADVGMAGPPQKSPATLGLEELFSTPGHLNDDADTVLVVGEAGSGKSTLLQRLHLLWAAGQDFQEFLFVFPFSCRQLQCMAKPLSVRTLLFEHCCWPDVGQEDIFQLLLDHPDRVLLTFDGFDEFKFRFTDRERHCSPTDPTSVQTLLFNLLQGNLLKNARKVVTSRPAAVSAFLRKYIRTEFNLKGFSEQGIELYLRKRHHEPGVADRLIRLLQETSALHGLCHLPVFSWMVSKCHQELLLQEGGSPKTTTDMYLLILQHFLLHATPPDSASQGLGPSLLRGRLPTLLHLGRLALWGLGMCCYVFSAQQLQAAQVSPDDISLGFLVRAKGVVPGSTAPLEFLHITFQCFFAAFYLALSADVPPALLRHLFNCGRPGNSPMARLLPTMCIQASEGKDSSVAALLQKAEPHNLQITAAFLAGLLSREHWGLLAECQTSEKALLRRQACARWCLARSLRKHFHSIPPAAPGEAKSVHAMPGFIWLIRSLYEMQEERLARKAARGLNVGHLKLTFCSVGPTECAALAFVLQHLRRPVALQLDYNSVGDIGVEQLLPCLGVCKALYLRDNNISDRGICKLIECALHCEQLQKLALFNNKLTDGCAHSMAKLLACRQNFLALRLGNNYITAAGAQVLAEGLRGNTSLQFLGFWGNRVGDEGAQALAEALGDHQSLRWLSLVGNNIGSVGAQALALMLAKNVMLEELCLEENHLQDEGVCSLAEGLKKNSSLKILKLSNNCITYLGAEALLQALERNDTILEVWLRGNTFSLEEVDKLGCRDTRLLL
# Sequence of Aurora kinase B (Homo sapiens) (Q96GD4 whole entry): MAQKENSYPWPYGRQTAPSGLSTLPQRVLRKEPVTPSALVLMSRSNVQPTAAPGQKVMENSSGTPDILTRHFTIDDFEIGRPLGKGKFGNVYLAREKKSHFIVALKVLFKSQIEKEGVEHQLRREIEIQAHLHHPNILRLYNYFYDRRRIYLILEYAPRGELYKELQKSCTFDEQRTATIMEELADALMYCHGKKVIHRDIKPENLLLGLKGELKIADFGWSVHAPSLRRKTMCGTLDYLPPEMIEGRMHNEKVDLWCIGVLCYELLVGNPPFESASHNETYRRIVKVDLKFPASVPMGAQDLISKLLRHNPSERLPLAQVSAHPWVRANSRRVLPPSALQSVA
# Sequence of Serine/threonine-protein kinase RIO2 (Homo sapiens) (Q9BVS4 whole entry, looked up): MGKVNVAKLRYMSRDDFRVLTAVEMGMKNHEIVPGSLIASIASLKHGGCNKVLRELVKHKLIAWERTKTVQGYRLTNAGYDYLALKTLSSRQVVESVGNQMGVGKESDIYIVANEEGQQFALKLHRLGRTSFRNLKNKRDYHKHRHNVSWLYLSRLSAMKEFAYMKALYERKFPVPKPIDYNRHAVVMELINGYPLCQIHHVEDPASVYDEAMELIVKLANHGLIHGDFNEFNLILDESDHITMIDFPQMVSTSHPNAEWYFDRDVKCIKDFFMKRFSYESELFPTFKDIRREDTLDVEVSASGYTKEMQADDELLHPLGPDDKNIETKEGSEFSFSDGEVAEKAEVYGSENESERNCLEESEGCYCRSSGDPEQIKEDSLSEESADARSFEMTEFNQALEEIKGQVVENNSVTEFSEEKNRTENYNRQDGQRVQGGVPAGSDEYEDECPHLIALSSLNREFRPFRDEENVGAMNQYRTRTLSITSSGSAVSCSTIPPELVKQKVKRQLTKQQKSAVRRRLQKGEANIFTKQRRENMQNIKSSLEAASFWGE
# Sequence of 5-hydroxytryptamine receptor 6 (Homo sapiens) (P50406 whole entry): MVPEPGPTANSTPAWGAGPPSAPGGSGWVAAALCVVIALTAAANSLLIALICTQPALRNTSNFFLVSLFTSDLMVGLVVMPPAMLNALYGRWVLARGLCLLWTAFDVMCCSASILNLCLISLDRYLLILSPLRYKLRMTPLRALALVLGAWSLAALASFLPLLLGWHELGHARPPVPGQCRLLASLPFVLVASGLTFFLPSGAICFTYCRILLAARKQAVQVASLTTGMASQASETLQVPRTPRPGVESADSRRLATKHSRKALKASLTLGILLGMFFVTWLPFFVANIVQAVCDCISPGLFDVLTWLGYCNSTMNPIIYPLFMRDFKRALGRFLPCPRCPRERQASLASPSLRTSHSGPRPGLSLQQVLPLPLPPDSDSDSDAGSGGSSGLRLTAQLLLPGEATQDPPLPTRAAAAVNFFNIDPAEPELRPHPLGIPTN
# Sequence of 5-hydroxytryptamine receptor 2B (Homo sapiens) (P41595 whole entry): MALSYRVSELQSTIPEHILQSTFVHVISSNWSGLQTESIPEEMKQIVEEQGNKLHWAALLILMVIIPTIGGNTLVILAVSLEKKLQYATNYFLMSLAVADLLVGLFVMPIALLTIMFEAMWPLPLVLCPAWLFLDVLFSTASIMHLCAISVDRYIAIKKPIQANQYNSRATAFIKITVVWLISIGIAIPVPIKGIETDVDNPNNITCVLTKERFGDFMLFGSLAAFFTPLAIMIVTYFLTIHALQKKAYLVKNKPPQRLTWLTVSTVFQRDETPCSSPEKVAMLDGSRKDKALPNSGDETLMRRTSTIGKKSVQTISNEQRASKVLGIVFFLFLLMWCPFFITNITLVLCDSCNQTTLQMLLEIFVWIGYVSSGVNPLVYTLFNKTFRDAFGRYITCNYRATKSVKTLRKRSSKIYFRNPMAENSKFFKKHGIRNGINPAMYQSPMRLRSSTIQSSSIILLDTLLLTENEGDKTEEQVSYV
# Sequence of Receptor-type tyrosine-protein kinase FLT3 (Homo sapiens) (P36888 whole entry): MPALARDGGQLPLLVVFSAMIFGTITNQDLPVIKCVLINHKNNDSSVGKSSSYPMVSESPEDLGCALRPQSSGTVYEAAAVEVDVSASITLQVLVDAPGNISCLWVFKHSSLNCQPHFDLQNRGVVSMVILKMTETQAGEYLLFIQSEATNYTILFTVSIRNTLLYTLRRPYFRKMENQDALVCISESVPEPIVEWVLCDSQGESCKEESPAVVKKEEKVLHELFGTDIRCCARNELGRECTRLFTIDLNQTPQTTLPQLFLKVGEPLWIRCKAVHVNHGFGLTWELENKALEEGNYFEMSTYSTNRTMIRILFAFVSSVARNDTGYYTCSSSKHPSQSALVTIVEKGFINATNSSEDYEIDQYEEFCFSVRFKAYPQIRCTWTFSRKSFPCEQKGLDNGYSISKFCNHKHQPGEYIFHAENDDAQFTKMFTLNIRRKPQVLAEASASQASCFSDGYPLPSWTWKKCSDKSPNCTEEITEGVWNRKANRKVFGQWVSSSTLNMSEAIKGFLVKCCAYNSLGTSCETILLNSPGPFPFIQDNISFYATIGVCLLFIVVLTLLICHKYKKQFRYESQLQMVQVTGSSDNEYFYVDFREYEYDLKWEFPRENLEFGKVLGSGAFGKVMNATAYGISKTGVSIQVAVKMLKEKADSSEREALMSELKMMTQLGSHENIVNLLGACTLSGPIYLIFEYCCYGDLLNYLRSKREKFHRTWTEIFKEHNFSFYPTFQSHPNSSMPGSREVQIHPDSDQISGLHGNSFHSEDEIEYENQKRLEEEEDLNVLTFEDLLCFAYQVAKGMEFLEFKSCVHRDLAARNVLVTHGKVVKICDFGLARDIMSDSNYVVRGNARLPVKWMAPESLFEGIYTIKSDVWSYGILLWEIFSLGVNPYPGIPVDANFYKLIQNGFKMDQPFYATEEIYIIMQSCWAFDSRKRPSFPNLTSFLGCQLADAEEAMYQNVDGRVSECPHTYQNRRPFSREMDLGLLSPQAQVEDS
smiles,measurement,setting,value
Cc1ccc(S(=O)(=O)n2c(N)nc3ccccc32)cc1,Activity,HEK-293T [1],0%
same,inhibition,[2],inactive
same,inhibition,MCF7,inactive
same,inhibition,HEK-293T [3],inactive
same,inhibition,HEK-293T [4],inactive
same,CC50 at 24 h,[5],> 50 µM
same,"fraction unbound at 4 h, 1 µM",[6],0.025
same,"fraction unbound at 4 h, 10 µM",[7],0.023
same,"fraction unbound at 4 h, 1 µM",[8],0.05
same,"fraction unbound at 4 h, 10 µM",[9],0.045
same,"remaining at 3 h, 1 µM",[10],100%
same,"remaining at 3 h, 1 µM",[11],100%
same,"remaining at 1 h, 1 µM",[12],41.8%
same,"remaining at 1 h, 1 µM",[13],0.8%
same,concentration at 20 min,[14],1200 ng/mL
same,concentration at 20 min,[15],5500 ng/mL
same,concentration at 2 h,[16],< 500 ng/mL
same,concentration at 2 h,[17],< 500 ng/mL
same,inhibition,[18],89%
same,inhibition,[19],92%
same,inhibition,[20],69%
same,inhibition,[21],21%
same,inhibition,[22],23%
same,inhibition,[23],27%
same,inhibition,[24],6%
same,inhibition,[25],inactive
same,Activity,[26],Non-toxic
same,inhibition,[27],Active
same,IC50,cells,> 20 µM
